Measured values from PubChem BioAssay (NCI).
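Tested at 5 concentrations; 48 h exposure; 96-well plates; endpoints linearly interpolated, else capped at highest concentration. GI50 = concentration required for 50% inhibition of growth. TGI: total growth inhibition.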

Tests used:
Test in all cases: NCI tumour cell line growth inhibition, 48 h
[1] = tested on: 786-0 renal
[2] = tested on: A498 renal
[3] = tested on: A549 NSCLC
[4] = tested on: BT-549 breast
[5] = tested on: CAKI-1 renal
[6] = tested on: CCRF-CEM leukemia
[7] = tested on: COLO 205 colon
[8] = tested on: EKVX NSCLC
[9] = tested on: HCC-2998 colon
[10] = tested on: HCT-116 colon
[11] = tested on: HL-60(TB) leukemia
[12] = tested on: HOP-62 NSCLC
[13] = tested on: HOP-92 NSCLC
[14] = tested on: HS 578T breast
[15] = tested on: HT29 colon
[16] = tested on: IGROV1 ovarian
[17] = tested on: K-562 leukemia
[18] = tested on: KM12 colon
[19] = tested on: M14 melanoma
[20] = tested on: MCF7 breast
[21] = tested on: MDA-MB-231 breast
[22] = tested on: MDA-MB-435
[23] = tested on: MOLT-4 leukemia
[24] = tested on: NCI-H226 lung
[25] = tested on: NCI-H23 lung
[26] = tested on: NCI-H460 lung
[27] = tested on: NCI-H522 lung
[28] = tested on: NCI/ADR-RES ovarian
[29] = tested on: OVCAR-3 ovarian
[30] = tested on: OVCAR-5 ovarian
[31] = tested on: OVCAR-8 ovarian
[32] = tested on: PC-3 prostate
[33] = tested on: RPMI-8226 leukemia
[34] = tested on: RXF 393 renal
[35] = tested on: SF-268 CNS
[36] = tested on: SF-295 CNS
[37] = tested on: SF-539 CNS
[38] = tested on: SK-MEL-2 melanoma
[39] = tested on: SK-MEL-5 melanoma
[40] = tested on: SK-OV-3 ovarian
[41] = tested on: SN12C renal
[42] = tested on: SNB-19 CNS
[43] = tested on: SR leukemia
[44] = tested on: SW-620 colon
[45] = tested on: T-47D breast
[46] = tested on: TK-10 renal
[47] = tested on: U251 CNS
[48] = tested on: UACC-257 melanoma
[49] = tested on: UACC-62 melanoma
[50] = tested on: UO-31 renal
[51] = tested on: ACHN renal
[52] = tested on: DU-145 prostate
[53] = tested on: HCT-15 colon
[54] = tested on: LOX IMVI melanoma
[55] = tested on: MALME-3M melanoma
[56] = tested on: OVCAR-4 ovarian
[57] = tested on: SK-MEL-28 melanoma
[58] = tested on: SNB-75 CNS

Compound: CN(C)CCCNC(=O)c1cc(NC(=O)CCNC(=O)c2ccc3c(c2)C(=O)c2ccccc2C3=O)cn1C
- GI50 [1]: > 100 µM
- TGI [1]: > 100 µM
- GI50 [2]: > 100 µM
- TGI [2]: > 100 µM
- GI50 [3]: > 100 µM
- TGI [3]: > 100 µM
- GI50 [4]: > 100 µM
- TGI [4]: > 100 µM
- GI50 [5]: > 100 µM
- TGI [5]: > 100 µM
- GI50 [6]: 64.1 µM
- TGI [6]: > 100 µM
- GI50 [7]: 33.9 µM
- TGI [7]: > 100 µM
- GI50 [8]: > 100 µM
- TGI [8]: > 100 µM
- GI50 [9]: 52.7 µM
- TGI [9]: > 100 µM
- GI50 [10]: > 100 µM
- TGI [10]: > 100 µM
- GI50 [11]: > 100 µM
- TGI [11]: > 100 µM
- GI50 [12]: > 100 µM
- TGI [12]: > 100 µM
- GI50 [13]: 58.9 µM
- TGI [13]: > 100 µM
- GI50 [14]: > 100 µM
- TGI [14]: > 100 µM
- GI50 [15]: 79.8 µM
- TGI [15]: > 100 µM
- GI50 [16]: > 100000 nM
- TGI [16]: > 100 µM
- GI50 [17]: > 100 µM
- TGI [17]: > 100 µM
- GI50 [18]: 40.8 µM
- TGI [18]: > 100 µM
- GI50 [19]: > 100 µM
- TGI [19]: > 100 µM
- GI50 [20]: 20.1 µM
- TGI [20]: 56.4 µM
- GI50 [21]: > 100 µM
- TGI [21]: > 100 µM
- GI50 [22]: > 100 µM
- TGI [22]: > 100 µM
- GI50 [23]: 37.4 µM
- TGI [23]: > 100 µM
- GI50 [24]: > 100 µM
- TGI [24]: > 100 µM
- GI50 [25]: > 100 µM
- TGI [25]: > 100 µM
- GI50 [26]: > 100 µM
- TGI [26]: > 100 µM
- GI50 [27]: > 100 µM
- TGI [27]: > 100 µM
- GI50 [28]: > 100 µM
- TGI [28]: > 100 µM
- GI50 [29]: 33.2 µM
- TGI [29]: > 100 µM
- GI50 [30]: > 100 µM
- TGI [30]: > 100 µM
- GI50 [31]: > 100 µM
- TGI [31]: > 100 µM
- GI50 [32]: > 100 µM
- TGI [32]: > 100 µM
- GI50 [33]: 48 µM
- TGI [33]: > 100 µM
- GI50 [34]: > 100000 nM
- TGI [34]: > 100 µM
- GI50 [35]: 71 µM
- TGI [35]: > 100 µM
- GI50 [36]: > 100 µM
- TGI [36]: > 100 µM
- GI50 [37]: > 100 µM
- TGI [37]: > 100 µM
- GI50 [38]: > 100 µM
- TGI [38]: > 100 µM
- GI50 [39]: > 100 µM
- TGI [39]: > 100 µM
- GI50 [40]: > 100 µM
- TGI [40]: > 100 µM
- GI50 [41]: > 100 µM
- TGI [41]: > 100 µM
- GI50 [42]: > 100 µM
- TGI [42]: > 100 µM
- GI50 [43]: 31 µM
- TGI [43]: 99.6 µM
- GI50 [44]: > 100 µM
- TGI [44]: > 100 µM
- GI50 [45]: 32.5 µM
- TGI [45]: 75.3 µM
- GI50 [46]: > 100 µM
- TGI [46]: > 100 µM
- GI50 [47]: 27.1 µM
- TGI [47]: > 100 µM
- GI50 [48]: 21.8 µM
- TGI [48]: 95.5 µM
- GI50 [49]: > 100 µM
- TGI [49]: > 100 µM
- GI50 [50]: > 100 µM
- TGI [50]: > 100 µM

Compound: O=C(/C=C/C=C/c1ccccc1)c1ccc(Nc2nc(Nc3ccccc3)nc(Nc3ccccc3)n2)cc1
- GI50 [1]: 45.8 µM
- TGI [1]: > 100 µM
- GI50 [2]: 19.8 µM
- TGI [2]: > 100 µM
- GI50 [3]: 89.1 µM
- TGI [3]: > 100 µM
- GI50 [51]: > 100 µM
- TGI [51]: > 100 µM
- GI50 [4]: > 100 µM
- TGI [4]: > 100 µM
- GI50 [5]: 16.3 µM
- TGI [5]: > 100 µM
- GI50 [6]: 19.4 µM
- TGI [6]: > 100 µM
- GI50 [7]: 2.16 µM
- TGI [7]: > 100 µM
- GI50 [52]: 43.6 µM
- TGI [52]: > 100 µM
- GI50 [8]: 88.2 µM
- TGI [8]: > 100 µM
- GI50 [9]: > 100 µM
- TGI [9]: > 100 µM
- GI50 [10]: 12.2 µM
- TGI [10]: > 100 µM
- GI50 [53]: > 100 µM
- TGI [53]: > 100 µM
- GI50 [11]: 28.7 µM
- TGI [11]: > 100 µM
- GI50 [12]: > 100 µM
- TGI [12]: > 100 µM
- GI50 [13]: 0.241 µM
- TGI [13]: 17.7 µM
- GI50 [14]: 29 µM
- TGI [14]: > 100 µM
- GI50 [15]: > 100 µM
- TGI [15]: > 100 µM
- GI50 [16]: 627 nM
- TGI [16]: > 100 µM
- GI50 [17]: 7.73 µM
- TGI [17]: 37.2 µM
- GI50 [18]: 57.9 µM
- TGI [18]: > 100 µM
- GI50 [54]: > 100 µM
- TGI [54]: > 100 µM
- GI50 [19]: 77.5 µM
- TGI [19]: > 100 µM
- GI50 [55]: > 100 µM
- TGI [55]: > 100 µM
- GI50 [20]: 17.7 µM
- TGI [20]: > 100 µM
- GI50 [21]: 34.7 µM
- TGI [21]: > 100 µM
- GI50 [22]: > 100 µM
- TGI [22]: > 100 µM
- GI50 [23]: 9.89 µM
- TGI [23]: 35.8 µM
- GI50 [24]: > 100 µM
- TGI [24]: > 100 µM
- GI50 [25]: > 100 µM
- TGI [25]: > 100 µM
- GI50 [26]: 42.8 µM
- TGI [26]: > 100 µM
- GI50 [27]: > 100 µM
- TGI [27]: > 100 µM
- GI50 [28]: > 100 µM
- TGI [28]: > 100 µM
- GI50 [29]: 47.8 µM
- TGI [29]: > 100 µM
- GI50 [56]: 88.1 µM
- TGI [56]: > 100 µM
- GI50 [30]: > 100 µM
- TGI [30]: > 100 µM
- GI50 [31]: 31.4 µM
- TGI [31]: > 100 µM
- GI50 [33]: 4.12 µM
- TGI [33]: > 100 µM
- GI50 [34]: 1620 nM
- TGI [34]: 47.5 µM
- GI50 [35]: 97 µM
- TGI [35]: > 100 µM
- GI50 [36]: 32.5 µM
- TGI [36]: > 100 µM
- GI50 [37]: 61.6 µM
- TGI [37]: > 100 µM
- GI50 [38]: > 100 µM
- TGI [38]: > 100 µM
- GI50 [57]: 46.9 µM
- TGI [57]: > 100 µM
- GI50 [39]: 13 µM
- TGI [39]: > 100 µM
- GI50 [40]: > 100 µM
- TGI [40]: > 100 µM
- GI50 [41]: > 100 µM
- TGI [41]: > 100 µM
- GI50 [42]: > 100 µM
- TGI [42]: > 100 µM
- GI50 [58]: 17.8 µM
- TGI [58]: > 100 µM
- GI50 [43]: 9.45 µM
- TGI [43]: 92.9 µM
- GI50 [44]: > 100 µM
- TGI [44]: > 100 µM
- GI50 [45]: 4.58 µM
- TGI [45]: > 100 µM
- GI50 [46]: > 100 µM
- TGI [46]: > 100 µM
- GI50 [47]: 63.7 µM
- TGI [47]: > 100 µM
- GI50 [48]: > 100 µM
- TGI [48]: > 100 µM
- GI50 [49]: > 100 µM
- TGI [49]: > 100 µM
- GI50 [50]: 13.3 µM
- TGI [50]: > 100 µM
